“And” between values parts separate entries of the source, which are not always exact repeats. Identical values can stand only once. Counter-ions that a name gives are not always drawn. Like-named read-outs stand apart in the source and are kept apart here.
Experiments:
[1] = molecular target: MCL1 protein (Homo sapiens (Human), UniProt Q07820); experiment: PIxEL: protein-protein interaction in permeabilized cells by ELISA (Assay 5); assay type: cell-based; settings: permeabilized RKO cells, biotin-BIM BH3 peptide, median
Chain of MCL1 protein (Q07820 whole entry): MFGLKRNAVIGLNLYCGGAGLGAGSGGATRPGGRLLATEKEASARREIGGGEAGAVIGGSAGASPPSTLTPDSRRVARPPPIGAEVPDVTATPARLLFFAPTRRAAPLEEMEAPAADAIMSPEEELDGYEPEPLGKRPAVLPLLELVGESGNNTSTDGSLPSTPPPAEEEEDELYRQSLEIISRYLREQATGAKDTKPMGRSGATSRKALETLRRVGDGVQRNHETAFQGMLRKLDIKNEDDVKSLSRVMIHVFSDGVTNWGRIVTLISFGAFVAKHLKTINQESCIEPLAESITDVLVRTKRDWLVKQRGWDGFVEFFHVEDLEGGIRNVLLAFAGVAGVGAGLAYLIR
Experimental: Assay 5 PI×EL: Protein-Protein Interaction in Permeabilized Cells by ELISA
Most MCL1 protein molecules are localized at the mitochondria outer membrane and sequester pro-apoptotic proteins through binding of their BCL2 homology domain 3 (BH3 domain). MEB buffer (150 mM mannitol, 10 mM HEPES pH 7.5, 50 mM KCl, 20 μM EDTA, 20 μM EGTA, 5 mM potassium succinate, 0.1% protease-free BSA (SIGMA) with low dose digitonin (0.002%) permeabilizes plasma membrane while leaves live mitochondria, where MCL1 maintains its native localization and conformation. Unlike biophysical assays (e.g. TR-FRET) that use truncated recombinant MCL1 protein, this assay uses full length endogenous MCL1 protein at mitochondria outer membrane. It measures the interaction between MCL1 protein and biotinylated BIM BH3 peptide. Compounds can compete with BIM BH3 peptide to bind to MCL1 protein. This serum free assay measures the affinity between MCL1 protein and compound in permeabilized cells, therefore it is not affected by serum binding and cell permeability, and can measure the intrinsic compound affinity.
On day 1, RKO colon cancer cell line cells were plated at 0.8 million cells/ml, 100 μl/well in 96-well flat bottom TC plates (Corning). MCL1 antibody (Santa Cruz sc-12756) were diluted at 200 fold (final concentration 1 μg/ml) in carbonate buffer (Thermo Fisher Scientific, pH 9.6), and 50 μl of diluted antibody was added to each well of high bind ELISA plates (SARSTEDT). Each plate was tapped to make sure liquid covering entire bottom of wells and incubate at 37° C. overnight.
On the second day, MCL1 antibody was washed from ELISA plate. 250 μl Odyssey® Blocking Buffer (PBS) (Li-Cor) was added to each well, incubated at room temperature for at least 1 hour, then washed once with 250 μl 1×PBST. Plates with RKO cells were gently washed once with 100 μl/well PBS, once with 100 μl/well MEB buffer without digitonin, then 100 μl of MEB buffer with 0.002% digitonin was gently added to each well. Compounds were added with HP Tecan compound dispenser in 3-fold dilution series, highest dose 30 μM, 10-dose per compound in quadruplicates. Biotin-BIM peptide (synthesized by 21st Century) was added with HP Tecan compound dispenser at 0.2 μM immediately after the addition of compounds. Plates were rocked for 1 hour at room temperature. Then MEB buffer was aspirated and 50 μl of CHAPS buffer (50 mM Tris-Cl, pH 7.4, 150 mM NaCl, 1% CHAPS, 1 mM EDTA, 1 mM EGTA, complete protease inhibitors (Roche), PhosSTOP (Roche)) was added to each well. Plates were rocked for 1 hour at 4° C., then 45 μl cell lysate from each well were transferred to ELISA plates coated with MCL1 antibody. Plates were incubated overnight in the cold room with rocking.
On the third day, ELISA plates were washed once with 250 μl 1×PBST. Streptavidin-poly-HRP (Thermo Fisher Scientific) was diluted to 20 ng/ml in Odyssey blocking buffer plus 0.05% Triton-100, and 100 μl was added to each well of the ELISA plate. Plates were incubated at room temperature for 1 hour with rocking, then washed with 100 μL 1×PBST for 3 times. Each SuperSignal ELISA Femto Maximum Sensitivity substrate was added to a 50-ml tube and mixed, then 100 μl of mixed substrate was added to each well. Plates were shaken for 1 minute then luminescence was measured by Envision plate reader […]. Signal of each well were normalized by no-compound control and no-cell control. IC50 was calculated using Graphic Pad PRISM software.

[2] = tested on: AMO-1; experiment: Antiproliferation assay AMO-1 (Assay 7); assay type: cell-based; settings: AMO-1 cells, CellTiter-Glo, single determinations, read-out: IC50 Antiproli AMO-1
Procedure, shortened: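 Proliferation is determined by CellTiter-Glo luminescence following 72 h incubation with compound at 37 °C, relative to a time-zero plate measured at plating.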

[3] = molecular target: MCL-1 (Homo sapiens (Human), UniProt Q07820, K194A/K197A/R201A); experiment: Protein-compound interaction assay (SPR assay, Assay 8); assay type: binding; settings: immobilized MBP-MCL-1, 25° C., geometric mean
Chain of MCL-1 (Q07820 whole entry K194A/K197A/R201A, looked up): as the sequence (Q07820 whole entry) above, with K194A, K197A, R201A counted along it
Excerpt: Assay 8 Protein-Compound Interaction Assay (SPR Assay)
The ability of the compounds described in this invention to bind to MCL-1 may be determined using surface plasmon resonance (SPR). This allows for the quantification of binding in terms of the equilibrium dissociation constant (KD [M]), as well as association and dissociation rate constants (kon [1/M 1/s] and koff [1/s], respectively). The measurements may be performed using Biacore® T200 or Biacore® S200 instruments (GE Healthcare).
For SPR measurements, recombinant MCL-1 (amino acids 173-321, N-terminal fused to Maltose Binding Protein (MBP) (SEQ ID 1) purchased from Beryllium (Bedford, Mass., USA)) was immobilized using standard amine coupling (Johnsson B et al, Anal Biochem. 1991 Nov. 1; 198(2):268-77). Briefly, carboxymethylated dextran biosensor chips (Series S Sensor Chip CMS, GE Healthcare) were activated with 1-ethyl-3-(3-dimethylaminopropyl)-carbodiimide hydrochloride (EDC) and N-hydroxysuccinimide (NHS) according to the supplier's instructions. MBP-MCL-1 was diluted in 1×PBS-P+ (GE Healthcare) and injected on the activated chip surface. Subsequently, a solution of 1 M ethanolamine-HCl (GE Healthcare) was injected to block unreacted groups, resulting in approximately 400-2500 response units (RU) of immobilized protein. A reference surface was generated by treatment with NHS-EDC and ethanolamine-HCl. […] For SPR binding-measurements, serial dilutions of compound (eight dilution steps, typically ranging from 0.2 nM up to 1 μM) were injected over immobilized protein. […] Compounds were injected for 60 s followed by a dissociation time of up to 1000 s.
The double-referenced sensorgrams were fit to a simple reversible Langmuir 1:1 reaction mechanism as implemented in the Biacore® T200 and S200 evaluation software (T200 evaluation software version 2.0 and S200 evaluation software version 1.0, GE Healthcare).

[4] = tested on: HMC-1-8; experiment: Antiproliferation assay HMC-1-8 (Assay 7); assay type: cell-based
Experimental: Assessment of the Anti-Proliferative Effect of Compounds in Different Cell Lines
The impact of compounds on the proliferation of different cell lines was assessed using the CellTiter-Glo® Luminescent Cell Viability reagent from Promega (G7573).
In parallel, cells were plated in a reference (day 0) plate for time zero determination.
Rim wells were excluded. The cells were incubated for 72 h hours in a humidified incubator at 37° C. The day 0 plate was measured by adding 30 μL/well of CTG solution (CellTiter-Glo® Luminescent Cell Viability reagent, Promega G7573) to time zero wells in the reference plate followed by a 10 minutes incubation and luminescence reading at 0.1 ms. using the PHERAstar FS microplate reader (BMG Labtech).
After 72 h incubation, the treated plates were measured in the same way as the day 0 plate mentioned above.

[5] = 72 h, HMC-1-8 cells, CellTiter-Glo, single determinations, read-out: IC50 Antiproli HMC-1-8
[6] = HMC-1-8 cells, 72 h, CellTiter-Glo; single determinations; read-out: IC50 Antiproli HMC-1-8

Row | Compound | IC50 [1] | IC50 ([2]; Homo sapiens, AMO1, 72 h) | Kd [3] | kon [3] | koff ([3]; read-out: koff) | IC50 ([2]; 72 h) | koff [3] | kon [1/M 1/s] [3] | IC50 ([2]; 72 h, listed as 02) | IC50 [4, 5] | IC50 ([4]; HMC-1-8 cells, 72 h, CellTiter-Glo; single determinations; listed as 02; read-out: IC50 Antiproli HMC-1-8) | IC50 [4, 6]
1 | CCc1c2c(nn1C)COCCCCn1c(C(=O)O)c(CCCOc3cccc4ccccc34)c3ccc(F)c-2c31 (single isomer, unassigned; enantiomer 1) [Example 7, 3-ethyl-4-fluoro-2-methyl-7-{3-[(naphthalen-1-yl)oxy]propyl}-2,10,11,12,13,15-hexahydro-pyrazolo[4′,3′:9,10][1,6]oxazacycloundecino[8,7,6-hi]indole-8-carboxylic acid-N-ethylethanamine salt (enantiomer 1)] | 2060 nM | 1910 nM | 2.3 nM | 6e+06 M⁻¹ s⁻¹ | 0.014 s⁻¹ | – | – | – | – | – | – | –
2 | Cc1c2c(nn1C)COCCCCn1c(C(=O)O)c(CCCOc3cccc4cc(F)ccc34)c3ccc(F)c-2c31 (single isomer, unassigned; enantiomer 1) [Example 13, 4-fluoro-7-{3-[(6-fluoronaphthalen-1-yl)oxy]propyl}-2,3-dimethyl-2,10,11,12,13,15-hexahydro-pyrazolo[4′,3′:9,10][1,6]oxazacycloundecino[8,7,6-hi]indole-8-carboxylic acid-N-ethylethanamine salt (enantiomer 1)] | 872 nM | – | 0.69 nM | 1.1e+07 M⁻¹ s⁻¹ | 0.0077 s⁻¹ | 747 nM and 564 nM | – | – | – | – | – | –
3 | CCc1c2c(nn1C)COCCCCn1c(C(=O)O)c(CCCOc3cccc4cc(F)ccc34)c3ccc(F)c-2c31 (single isomer, unassigned; enantiomer 2) [Example 23, 3-ethyl-4-fluoro-7-{3-[(6-fluoronaphthalen-1-yl)oxy]propyl}-2-methyl-2,10,11,12,13,15-hexahydropyrazolo[4′,3′:9,10][1,6]oxazacycloundecino[8,7,6-hi]indole-8-carboxylic acid-N-ethylethanamine salt (enantiomer 2)] | 15100 nM | – | 27 nM | – | – | – | 0.0026 s⁻¹ | 9.7E4 1/M 1/s | – | – | – | –
4 | Cc1c2c(nn1C)COCCCCn1c(C(=O)O)c(CCCOc3cccc4ccccc34)c3ccc(F)c-2c31 (racemic) [Example 2, (rac)-4-fluoro-2,3-dimethyl-7-[3-(naphthalen-1-yloxy)propyl]-2,10,11,12,13,15-hexahydro-pyrazolo[4′,3′:9,10][1,6]oxazacycloundecino[8,7,6-hi]indole-8-carboxylic acid] | – | 2460 nM | 43 nM | 230000 M⁻¹ s⁻¹ | 0.01 s⁻¹ | – | – | – | 1910 nM | 10000 nM | 7580 nM | –
5 | CCc1c2c(nn1C)COCCCCn1c(C(=O)O)c(CCCOc3cccc4cc(F)ccc34)c3ccc(F)c-2c31 (single isomer, unassigned; enantiomer 1) [Example 22, 3-ethyl-4-fluoro-7-{3-[(6-fluoronaphthalen-1-yl)oxy]propyl}-2-methyl-2,10,11,12,13,15-hexahydropyrazolo[4′,3′:9,10][1,6]oxazacycloundecino[8,7,6-hi]indole-8-carboxylic acid-N-ethylethanamine salt (enantiomer 1)] | 1340 nM | – | 1.6 nM | – | – | – | 0.0072 s⁻¹ | 4.4E6 1/M 1/s | – | 2440 nM | – | 3530 nM
6 | Cc1c2c(nn1C)COCCCCn1c(C(=O)O)c(CCCOc3cccc4ccccc34)c3ccc(F)c-2c31 (single isomer, unassigned; enantiomer 1) [Example 3, 4-fluoro-2,3-dimethyl-7-[3-(naphthalen-1-yloxy)propyl]-2,10,11,12,13,15-hexahydropyrazolo-[4′,3′:9,10][1,6]oxazacycloundecino[8,7,6-hi]indole-8-carboxylic acid-N-ethylethanamine salt (enantiomer 1)] | 1400 nM | 2000 nM | 4.2 nM | 4.6e+06 M⁻¹ s⁻¹ | 0.019 s⁻¹ | – | – | – | – | 6110 nM | – | –
7 | CCc1nn(C)c2c1-c1c(F)ccc3c(CCCOc4cccc5cc(F)ccc45)c(C(=O)O)n(c13)CCCCOC2 (single isomer, unassigned; enantiomer 1) [Example 39, 3-ethyl-4-fluoro-7-{3-[(6-fluoronaphthalen-1-yl)oxy]propyl}-1-methyl-1,10,11,12,13,15-hexahydropyrazolo[4′,3′:9,10][1,6]oxazacycloundecino[8,7,6-hi]indole-8-carboxylic acid-N-ethylethanamine salt (enantiomer 1)] | 2380 nM | – | 1.5 nM | 1.4e+07 M⁻¹ s⁻¹ | 0.021 s⁻¹ | 1720 nM | – | – | – | 3170 nM | – | –
8 | CCc1c2c(nn1C)COCCCCn1c(C(=O)O)c(CCCOc3cccc4cc(F)ccc34)c3ccc(F)c-2c31 (single isomer, unassigned; enantiomer 1) [Example 24, 3-ethyl-4-fluoro-7-{3-[(6-fluoronaphthalen-1-yl)oxy]propyl}-2-methyl-2,10,11,12,13,15-hexahydropyrazolo[4′,3′:9,10][1,6]oxazacycloundecino[8,7,6-hi]indole-8-carboxylic acid (enantiomer 1)] | 424 nM | – | 2.9 nM | 3.3e+06 M⁻¹ s⁻¹ | 0.0097 s⁻¹ | 878 nM | – | – | – | – | – | 2500 nM
